Laboratory results as given in patent publication US10239844B2, “Disubstituted triazole analogs” (BioVentures, LLC, priority 2014, dated 2019).

Tests used:
Type in all cases: cell-based, human
CCRF-CEM = assay: NCI 60 panel five-dose growth inhibition, Leukemia; details: for GI50: Homo sapiens
HL-60(T13) = assay: NCI 60 panel five-dose growth inhibition, Leukemia; details: for GI50: Homo sapiens
MOLT-4 = assay: NCI 60 panel five-dose growth inhibition, Leukemia; details: MOLT-4, Leukemia; for GI50: Homo sapiens
RPMI-8226 = assay: NCI 60 panel five-dose growth inhibition, Leukemia; details: RPMI-8226, Leukemia; for GI50: Homo sapiens
SR = assay: NCI 60 panel five-dose growth inhibition, Leukemia; details: for GI50: Homo sapiens
A549/ATCC = assay: NCI 60 panel five-dose growth inhibition, Non-Small Cell Lung Cancer; details: for GI50: Homo sapiens
HOP-92 = assay: as above; details: HOP-92, Non-Small Cell Lung Cancer; for GI50: Homo sapiens
NCI-H23 = assay: as above; details: for GI50: Homo sapiens
COLO 205 = assay: NCI 60 panel five-dose growth inhibition, Colon Cancer; details: COLO 205, Colon Cancer; for GI50: Homo sapiens
HCC-2998 = assay: as above; details: HCC-2998, Colon Cancer; for GI50: Homo sapiens
HT29 = assay: as above; details: for GI50: Homo sapiens, HT-29
SW-620 = assay: as above; details: SW-620, Colon Cancer; for GI50: Homo sapiens
SF-268 = assay: NCI 60 panel five-dose growth inhibition, CNS Cancer; details: SF-268, CNS Cancer; for GI50: Homo sapiens
SF-295 = assay: as above; details: SF-295, CNS Cancer; for GI50: Homo sapiens
SF-539 = assay: as above; details: SF-539, CNS Cancer; for GI50: Homo sapiens
SNB-19 = assay: as above; details: SNB-19, CNS Cancer; for GI50: Homo sapiens
SNB-75 = assay: as above; details: SNB-75, CNS Cancer; for GI50: Homo sapiens
LOX IMVI = assay: NCI 60 panel five-dose growth inhibition, Melanoma; details: for GI50: Homo sapiens
M14 = assay: NCI 60 panel five-dose growth inhibition, Melanoma
MDA-MB-435 = assay: NCI 60 panel five-dose growth inhibition, Melanoma; details: Homo sapiens; MDA-MB-435, Melanoma
SK-MEL-2 = assay: NCI 60 panel five-dose growth inhibition, Melanoma; details: SK-MEL-2, Melanoma; for GI50: Homo sapiens
SK-MEL-28 = assay: NCI 60 panel five-dose growth inhibition, Melanoma; details: SK-MEL-28, Melanoma; for GI50: Homo sapiens
5K-MEL-5 = assay: NCI 60 panel five-dose growth inhibition, Melanoma; details: 5K-MEL-5, Melanoma; for GI50: Homo sapiens
UACC-62 = assay: NCI 60 panel five-dose growth inhibition, Melanoma; details: for TGI: UACC-62, Melanoma
IGROV1 = assay: NCI 60 panel five-dose growth inhibition, Ovarian Cancer; details: for GI50: Homo sapiens, IGROV-1
OVCA R-3 = assay: as above; details: OVCA R-3, Ovarian Cancer; for GI50: Homo sapiens, OVCAR-3
NCI/ADR-RES = assay: as above; details: for GI50: Homo sapiens
SK-OV-3 = assay: as above; details: SK-OV-3, Ovarian Cancer; for GI50: Homo sapiens
786-0 = assay: NCI 60 panel five-dose growth inhibition, Renal Cancer; details: 786-0, Renal Cancer; for GI50: Homo sapiens
U0-31 = assay: as above; details: U0-31, Renal Cancer; for GI50: Homo sapiens
PC-3 = assay: NCI 60 panel five-dose growth inhibition, Prostate Cancer; details: PC-3, Prostate Cancer; for GI50: Homo sapiens
DU-145 = assay: as above; details: DU-145, Prostate Cancer; for GI50: Homo sapiens
MCF7 = assay: NCI 60 panel five-dose growth inhibition, Breast Cancer; details: for GI50: Homo sapiens
MDA-MB-231/ATCC = assay: as above; details: for GI50: Homo sapiens
HS 5781 = assay: as above; details: HS 5781, Breast Cancer; for GI50: Homo sapiens
MDA-MB-468 = assay: as above; details: MDA-MB-468, Breast Cancer; for GI50: Homo sapiens

## COc1ccc(-c2n[nH]nc2-c2cc(OC)c(OC)c(OC)c2)cc1 [Example 6, 4-(4-methoxyphenyl)-5-(3,4,5-trimethoxyphenyl)-2H-1,2,3-triazole]
CCRF-CEM
  TGI: >100000 nM
  GI50: 33.7 nM
HL-60(T13)
  TGI: 80 nM
  GI50: 18.9 nM
MOLT-4
  GI50: 39.9 nM
  TGI: 11600 nM
RPMI-8226
  GI50: 32.5 nM
  TGI: 11000 nM
SR
  TGI: 24000 nM
  GI50: < 10 nM
A549/ATCC
  TGI: 22600 nM
  GI50: 22.9 nM
HOP-92
  TGI: 540 nM
  GI50: < 10 nM
NCI-H23
  TGI: 41700 nM
  GI50: 48 nM
COLO 205
  TGI: 70 nM
  GI50: 26.7 nM
HCC-2998
  TGI: 17500 nM
  GI50: 39.4 nM
HT29
  TGI: 12300 nM
  GI50: 25.3 nM
SW-620
  GI50: < 10 nM
  TGI: >100000 nM
SF-268
  GI50: 68.5 nM
  TGI: >100000 nM
SF-295
  GI50: < 10 nM
  TGI: 42800 nM
SF-539
  GI50: < 10 nM
SNB-19
  GI50: 29.4 nM
  TGI: >100000 nM
SNB-75
  GI50: < 10 nM
  TGI: 21900 nM
LOX IMVI
  TGI: 37800 nM
  GI50: 17.5 nM
M14; Homo sapiens
  GI50: < 10 nM
MDA-MB-435
  GI50: < 10 nM
SK-MEL-2
  GI50: < 10 nM
  TGI: 18100 nM
SK-MEL-28
  GI50: > 100 nM
  TGI: 34800 nM
5K-MEL-5
  TGI: 160 nM
  GI50: < 10 nM
UACC-62
  TGI: 21200 nM
IGROV1
  TGI: 30300 nM
  GI50: 33.2 nM
OVCA R-3
  GI50: < 10 nM
  TGI: <10 nM
NCI/ADR-RES
  TGI: 69700 nM
  GI50: < 10 nM
SK-OV-3
  GI50: < 10 nM
  TGI: 12700 nM
786-0
  TGI: 13500 nM
  GI50: < 10 nM
U0-31
  GI50: < 10 nM
  TGI: 24600 nM
PC-3
  GI50: 18.4 nM
  TGI: 39400 nM
DU-145
  TGI: >100000 nM
  GI50: 25 nM
MCF7
  TGI: 37900 nM
  GI50: < 10 nM
MDA-MB-231/ATCC
  TGI: >100000 nM
  GI50: 44.4 nM
HS 5781
  TGI: 64200 nM
  GI50: 668 nM
MDA-MB-468
  GI50: 14.7 nM
  TGI: 30500 nM

## COc1cc(-c2n[nH]nc2-c2ccc3c(c2)OCCO3)cc(OC)c1OC [Example 7, 4-(2,3-dihydrobenzo[b][1,4]dioxin-6-yl)-5-(3,4,5-trimethoxyphenyl)-2H-1,2,3-triazole]
CCRF-CEM
  TGI: >100000 nM
  GI50: 282 nM
HL-60(T13)
  GI50: 201 nM
MOLT-4
  GI50: 572 nM
  TGI: 51800 nM
RPMI-8226
  GI50: 326 nM
  TGI: 22100 nM
SR
  TGI: 11600 nM
  GI50: 43.6 nM
A549/ATCC
  TGI: 50900 nM
  GI50: 289 nM
HOP-92
  TGI: 1590 nM
  GI50: 122 nM
NCI-H23
  TGI: >100000 nM
  GI50: 767 nM
COLO 205
  TGI: 1300 nM
  GI50: 311 nM
HCC-2998
  TGI: 24600 nM
  GI50: > 1000 nM
HT29
  TGI: 12500 nM
  GI50: 392 nM
SW-620
  GI50: 105 nM
  TGI: >100000 nM
SF-268
  GI50: > 1000 nM
  TGI: >100000 nM
SF-295
  GI50: 98.9 nM
  TGI: 3610 nM
SF-539
  GI50: 181 nM
  TGI: 540 nM
SNB-19
  GI50: 501 nM
  TGI: >100000 nM
SNB-75
  GI50: 82.4 nM
LOX IMVI
  TGI: 87100 nM
  GI50: 545 nM
M14
  TGI: 12000 nM
MDA-MB-435
  GI50: 94.8 nM
SK-MEL-2
  GI50: 23.6 nM
  TGI: 55700 nM
SK-MEL-28
  GI50: 244 nM
  TGI: 43500 nM
5K-MEL-5
  TGI: 11900 nM
  GI50: > 1000 nM
UACC-62; Homo sapiens, UACC-62, UACC-62, Melanoma
  GI50: > 1000 nM
UACC-62
  TGI: 30800 nM
IGROV1
  TGI: >100000 nM
  GI50: > 1000 nM
OVCA R-3
  GI50: 432 nM
  TGI: 370 nM
NCI/ADR-RES
  TGI: 24000 nM
  GI50: 84.9 nM
SK-OV-3
  GI50: 486 nM
  TGI: 93200 nM
786-0
  TGI: 63500 nM
  GI50: 618 nM
U0-31
  GI50: 661 nM
  TGI: 72700 nM
PC-3
  GI50: 255 nM
  TGI: 43700 nM
DU-145
  TGI: >100000 nM
  GI50: 346 nM
MCF7
  TGI: >100000 nM
  GI50: 76.8 nM
MDA-MB-231/ATCC
  TGI: 31500 nM
  GI50: 529 nM
HS 5781
  TGI: >100000 nM
  GI50: 442 nM
MDA-MB-468
  GI50: 226 nM
  TGI: 25800 nM
